Assay results reported in patent publication US11053251B2, “GPR35 modulators” (Prometheus Biosciences, Inc., priority 2019, dated 2021).

molecular target: Human GPR35 (Homo sapiens, UniProt Q9HC97, S294R); assay: Alternative Beta-Arrestin Assay (JumpIn 294R Tango U2OS cells, LiveBLAzer-FRET B/G); format: cell-based; conditions: Human GPR35 expressing JumpIn 294R Tango U2OS cells, 5 hours treatment
Method: Human GPR35 expressing JumpIn (Thermo Fisher) 294R Tango U2OS cells were plated in 384-well format in clear bottom plates at a cell density of 10,000 cells/well and allowed to grow overnight. The next day, cells were treated with serially diluted test compounds for 5 hours. LiveBLAzer-FRET B/G (CCF4-AM) detection reagents were then added and cells were allowed to incubate for 2 hours before reading plates on a BioTek Cytation 5 plate reader. Zaprinast was used as a positive control for dose-response curves. In order to determine EC50 values, data w ere fit to a four-parameter dose-response curves.

Sequence of Human GPR35 (Q9HC97 whole entry S294R): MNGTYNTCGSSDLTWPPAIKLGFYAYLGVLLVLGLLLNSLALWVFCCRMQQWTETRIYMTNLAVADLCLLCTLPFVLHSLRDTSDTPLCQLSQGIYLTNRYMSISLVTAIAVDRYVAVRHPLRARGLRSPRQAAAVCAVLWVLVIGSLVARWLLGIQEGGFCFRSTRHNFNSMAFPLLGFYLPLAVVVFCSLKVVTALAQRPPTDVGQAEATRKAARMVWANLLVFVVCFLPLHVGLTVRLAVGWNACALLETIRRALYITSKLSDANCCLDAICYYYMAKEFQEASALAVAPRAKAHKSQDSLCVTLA

EC50, ≤ 10 µM:
O=C(O)c1ccc(-c2ccc(-c3nc4[nH]nnc4c(=O)[nH]3)c(OC3CCCC3)c2)c(O)c1 [Compound 202, 3′-(Cyclopentyloxy)-2-hydroxy-4′-(7-oxo-6,7-dihydro-3H-[1,2,3]triazolo[4,5-d]pyrimidin-5-yl)-[1,1′-biphenyl]-4-carboxylic acid]
CCOc1cc(-c2cccc(O[C@H](C)C(=O)O)c2)ccc1-c1nc2[nH]nnc2c(=O)[nH]1 (single isomer, unassigned) [Compound 251]
CCOc1cc(-c2ccc(NCC(=O)O)cc2)ccc1-c1nc2[nH]nnc2c(=O)[nH]1 [Compound 215, (3′-Ethoxy-4′-(7-oxo-6,7-dihydro-3H-[1,2,3]triazolo[4,5-d]pyrimidin-5-yl)-[1,1′-biphenyl]-4-yl)glycine]
CCOc1cc(-c2cc(O)cc(NCC(=O)O)c2)ccc1-c1nc2[nH]nnc2c(=O)[nH]1 [Compound 223, (3′-Ethoxy-5-hydroxy-4′-(7-oxo-6,7-dihydro-3H-[1,2,3]triazolo[4,5-d]pyrimidin-5-yl)-[1,1′-biphenyl]-3-yl)glycine]
CCOc1cc(-c2ccc(C)c(CCC(=O)O)c2)ccc1-c1nc2[nH]nnc2c(=O)[nH]1 [Compound 321, 3-(3′-ethoxy-4-methyl-4′-(7-oxo-6,7-dihydro-3H-[1,2,3]triazolo[4,5-d]pyrimidin-5-yl)-[1,1′-biphenyl]-3-yl)propanoic acid]
CCOc1cc(-c2cccc([C@@H]3C[C@@H]3C(=O)O)c2)ccc1-c1nc2[nH]nnc2c(=O)[nH]1 (racemic) [Compound 306, rac-cis-2-(3′-ethoxy-4′-(7-oxo-6,7-dihydro-3H-[1,2,3]triazolo[4,5-d]pyrimidin-5-yl)-[1,1′-biphenyl]-3-yl)cyclopropane-1-carboxylic acid]
CCOc1cc(-c2cc(O)cc(O[C@H](C)C(=O)O)c2)ccc1-c1nc2[nH]nnc2c(=O)[nH]1 (single isomer, unassigned) [Compound 255]
CCOc1cc(-c2cc(C(=O)O)n(C)c2)ccc1-c1nc2[nH]nnc2c(=O)[nH]1 [Compound 192, 4-(3-ethoxy-4-(7-oxo-6,7-dihydro-3H-[1,2,3]triazolo[4,5-d]pyrimidin-5-yl)phenyl)-1-methyl-1H-pyrrole-2-carboxylic acid]
O=C(O)c1ccc(-c2ccc(-c3nc4[nH]nnc4c(=O)[nH]3)cc2NCc2ccccc2)cc1 [Compound 290, 2′-(benzylamino)-4′-(7-oxo-6,7-dihydro-3H-[1,2,3]triazolo[4,5-d]pyrimidin-5-yl)-[1,1′-biphenyl]-4-carboxylic acid]
CCOc1cc(-c2cccc(CC(C)(C)C(=O)O)c2)ccc1-c1nc2[nH]nnc2c(=O)[nH]1 [Compound 243, 3-(3′-ethoxy-4′-(7-oxo-6,7-dihydro-3H-[1,2,3]triazolo[4,5-d]pyrimidin-5-yl)-[1,1′-biphenyl]-3-yl)-2,2-dimethylpropanoic acid]
CCOc1cc(-c2cccc(OC(C)C(=O)O)c2)ccc1-c1nc2[nH]nnc2c(=O)[nH]1 (racemic) [Compound 212, (±)-2-((3′-Ethoxy-4′-(7-oxo-6,7-dihydro-3H-[1,2,3]triazolo[4,5-d]pyrimidin-5-yl)-[1,1′-biphenyl]-3-yl)oxy)propanoic acid]
O=C(O)c1cccc(-c2ccc(-c3nc4[nH]nnc4c(=O)[nH]3)c(OC3CCCC3)c2)c1O [Compound 209, 3′-(Cyclopentyloxy)-2-hydroxy-4′-(7-oxo-6,7-dihydro-3H-[1,2,3]triazolo[4,5-d]pyrimidin-5-yl)-[1,1′-biphenyl]-3-carboxylic acid]
CCOc1cc(-c2cccc(/C=C(\C)C(=O)O)c2)ccc1-c1nc2[nH]nnc2c(=O)[nH]1 (single isomer, unassigned) [Compound 237, (E)-3-(3′-ethoxy-4′-(7-oxo-6,7-dihydro-3H-[1,2,3]triazolo[4,5-d]pyrimidin-5-yl)-[1,1′-biphenyl]-3-yl)-2-methylacrylic acid]
CCOC(=O)C(Oc1cccc(-c2ccc(-c3nc4[nH]nnc4c(=O)[nH]3)c(OCC)c2)c1)C(C)C (stereo not shown) [Compound 268, ethyl 2-((3′-ethoxy-4′-(7-oxo-6,7-dihydro-3H-[1,2,3]triazolo[4,5-d]pyrimidin-5-yl)-[1,1′-biphenyl]-3-yl)oxy)-3-methylbutanoate]
CCOc1cc(-c2cccc(C[C@H](O)C(=O)O)c2)ccc1-c1nc2[nH]nnc2c(=O)[nH]1 [Compound 282, (S)-3-(3′-ethoxy-4′-(7-oxo-6,7-dihydro-3H-[1,2,3]triazolo[4,5-d]pyrimidin-5-yl)-[1,1′-biphenyl]-3-yl)-2-hydroxypropanoic acid]
CCOc1cc(-c2ccc(OC(C)C)c(CC(C)C(=O)O)c2)ccc1-c1nc2[nH]nnc2c(=O)[nH]1 (single isomer, unassigned) [Compound 313, 3-(3′-ethoxy-4-isopropoxy-4′-(7-oxo-6,7-dihydro-3H-[1,2,3]triazolo[4,5-d]pyrimidin-5-yl)-[1,1′-biphenyl]-3-yl)-2-methylpropanoic acid]
CCOc1cc(-c2cccc(C(C)C(=O)O)c2)ccc1-c1nc2[nH]nnc2c(=O)[nH]1 (stereo not shown) [Compound 297, 2-(3′-ethoxy-4′-(7-oxo-6,7-dihydro-3H-[1,2,3]triazolo[4,5-d]pyrimidin-5-yl)-[1,1′-biphenyl]-3-yl)propanoic acid]
CCOc1cc(-c2cc(O)cc(OC(CC)C(=O)O)c2)ccc1-c1nc2[nH]nnc2c(=O)[nH]1 (stereo not shown) [Compound 257, 2-((3′-ethoxy-5-hydroxy-4′-(7-oxo-6,7-dihydro-3H-[1,2,3]triazolo[4,5-d]pyrimidin-5-yl)-[1,1′-biphenyl]-3-yl)oxy)butanoic acid]
COc1cc(-c2nc3[nH]nnc3c(=O)[nH]2)cc(OC)c1-c1ccc(C(=O)O)cc1 [Compound 196, 2′,6′-Dimethoxy-4′-(7-oxo-6,7-dihydro-3H-[1,2,3]triazolo[4,5-d]pyrimidin-5-yl)-[1,1′-biphenyl]-4-carboxylic acid]
CCOc1cc(-c2cccc([C@H]3C[C@@H]3C(=O)O)c2)ccc1-c1nc2[nH]nnc2c(=O)[nH]1 (racemic) [Compound 277, rac-trans-2-(3′-ethoxy-4′-(7-oxo-6,7-dihydro-3H-[1,2,3]triazolo[4,5-d]pyrimidin-5-yl)-[1,1′-biphenyl]-3-yl)cyclopropane-1-carboxylic acid]
CCOc1cc(-c2cccc(CC(C)C(=O)O)c2)ccc1-c1nc2[nH]nnc2c(=O)[nH]1 (stereo not shown) [Compound 238, 3-(3′-ethoxy-4′-(7-oxo-6,7-dihydro-3H-[1,2,3]triazolo[4,5-d]pyrimidin-5-yl)-[1,1′-biphenyl]-3-yl)-2-methylpropanoic acid]
O=C(O)c1ccc(-c2ccc(-c3nc4[nH]nnc4c(=O)[nH]3)c(OC3CCCC3)c2)cn1 [Compound 233, 5-(3-(Cyclopentyloxy)-4-(7-oxo-6,7-dihydro-3H-[1,2,3]triazolo[4,5-d]pyrimidin-5-yl)phenyl)picolinic acid]
CCOc1cc(-c2cccc(OC(C(=O)O)C(C)C)c2)ccc1-c1nc2[nH]nnc2c(=O)[nH]1 (stereo not shown) [Compound 269, 2-((3′-ethoxy-4′-(7-oxo-6,7-dihydro-3H-[1,2,3]triazolo[4,5-d]pyrimidin-5-yl)-[1,1′-biphenyl]-3-yl)oxy)-3-methylbutanoic acid]
O=C(O)c1cc(O)cc(-c2ccc(-c3nc4[nH]nnc4c(=O)[nH]3)c(OC3CCCC3)c2)c1 [Compound 199, 3′-(Cyclopentyloxy)-5-hydroxy-4′-(7-oxo-6,7-dihydro-3H-[1,2,3]triazolo[4,5-d]pyrimidin-5-yl)-[1,1′-biphenyl]-3-carboxylic acid]
CCOc1cc(-c2cc(F)cc(O[C@H](C)C(=O)O)c2)ccc1-c1nc2[nH]nnc2c(=O)[nH]1 (single isomer, unassigned) [Compound 262]
CCOc1cc(-c2cccc(OC(C(=O)O)c3ccccc3)c2)ccc1-c1nc2[nH]nnc2c(=O)[nH]1 (stereo not shown) [Compound 249, 2-((3′-ethoxy-4′-(7-oxo-6,7-dihydro-3H-[1,2,3]triazolo[4,5-d]pyrimidin-5-yl)-[1,1′-biphenyl]-3-yl)oxy)-2-phenylacetic acid]
CCOc1cc(-c2cccc(OC(C)(C)C(=O)O)c2)ccc1-c1nc2[nH]nnc2c(=O)[nH]1 [Compound 213, 2-((3′-Ethoxy-4′-(7-oxo-6,7-dihydro-3H-[1,2,3]triazolo[4,5-d]pyrimidin-5-yl)-[1,1′-biphenyl]-3-yl)oxy)-2-methylpropanoic acid]
CCOc1cc(-c2ccc(O)c(CCC(=O)O)c2)ccc1-c1nc2[nH]nnc2c(=O)[nH]1 [Compound 309, 3-(3′-ethoxy-4-hydroxy-4′-(7-oxo-6,7-dihydro-3H-[1,2,3]triazolo[4,5-d]pyrimidin-5-yl)-[1,1′-biphenyl]-3-yl)propanoic acid]
CCCC(Oc1cccc(-c2ccc(-c3nc4[nH]nnc4c(=O)[nH]3)c(OCC)c2)c1)C(=O)O (stereo not shown) [Compound 248, 2-((3′-ethoxy-4′-(7-oxo-6,7-dihydro-3H-[1,2,3]triazolo[4,5-d]pyrimidin-5-yl)-[1,1′-biphenyl]-3-yl)oxy)pentanoic acid]
CCOc1cc(-c2cc(F)c(O)c(F)c2)ccc1-c1nc2[nH]nnc2c(=O)[nH]1 [Compound 203, 5-(3-Ethoxy-3′,5′-difluoro-4′-hydroxy-[1,1′-biphenyl]-4-yl)-3,6-dihydro-7H-[1,2,3]triazolo[4,5-d]pyrimidin-7-one]
CCOc1cc(-c2cccc(CC(=O)O)c2)ccc1-c1nc2[nH]nnc2c(=O)[nH]1 [Compound 295, 2-(3′-ethoxy-4′-(7-oxo-6,7-dihydro-3H-[1,2,3]triazolo[4,5-d]pyrimidin-5-yl)-[1,1′-biphenyl]-3-yl)acetic acid]
